Experimental data taken from article PMC7705960, “Discovery of a Beetroot Protease Inhibitor to Identify and Classify Plant-Derived Cystine Knot Peptides” (Journal of Natural Products, 2020).
Values joined by “and” are separate entries in the source; they are usually repeats but may differ in a detail not shown here. Equal values may be shown once. Read-outs that look alike come from different tables or passages of the source. Positions of bridges follow the written chain, without caps; N, C: chain ends. Residues, ends and D or L forms follow the SMILES beside them.

T1: Bovine β-trypsin (Bos taurus, UniProt P00760)
T1 sequence (P00760 24-246): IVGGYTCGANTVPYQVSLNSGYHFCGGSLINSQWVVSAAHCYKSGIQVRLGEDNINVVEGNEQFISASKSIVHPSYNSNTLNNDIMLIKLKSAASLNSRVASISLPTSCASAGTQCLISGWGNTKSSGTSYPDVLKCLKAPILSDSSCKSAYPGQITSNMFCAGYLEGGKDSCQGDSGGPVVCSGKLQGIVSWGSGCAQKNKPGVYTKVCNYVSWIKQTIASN

T2: human POP (Homo sapiens, UniProt P48147)
T2 construct: The full-length cDNA was cloned into the BamHI and EcoRI cloning sites of the commercially available expression plasmid pGEX-6P1; GST (from pGEX-6P1) (N, cleaved yes); made in house; host or cells: E. coli BL21
T2 sequence (P48147 1-710): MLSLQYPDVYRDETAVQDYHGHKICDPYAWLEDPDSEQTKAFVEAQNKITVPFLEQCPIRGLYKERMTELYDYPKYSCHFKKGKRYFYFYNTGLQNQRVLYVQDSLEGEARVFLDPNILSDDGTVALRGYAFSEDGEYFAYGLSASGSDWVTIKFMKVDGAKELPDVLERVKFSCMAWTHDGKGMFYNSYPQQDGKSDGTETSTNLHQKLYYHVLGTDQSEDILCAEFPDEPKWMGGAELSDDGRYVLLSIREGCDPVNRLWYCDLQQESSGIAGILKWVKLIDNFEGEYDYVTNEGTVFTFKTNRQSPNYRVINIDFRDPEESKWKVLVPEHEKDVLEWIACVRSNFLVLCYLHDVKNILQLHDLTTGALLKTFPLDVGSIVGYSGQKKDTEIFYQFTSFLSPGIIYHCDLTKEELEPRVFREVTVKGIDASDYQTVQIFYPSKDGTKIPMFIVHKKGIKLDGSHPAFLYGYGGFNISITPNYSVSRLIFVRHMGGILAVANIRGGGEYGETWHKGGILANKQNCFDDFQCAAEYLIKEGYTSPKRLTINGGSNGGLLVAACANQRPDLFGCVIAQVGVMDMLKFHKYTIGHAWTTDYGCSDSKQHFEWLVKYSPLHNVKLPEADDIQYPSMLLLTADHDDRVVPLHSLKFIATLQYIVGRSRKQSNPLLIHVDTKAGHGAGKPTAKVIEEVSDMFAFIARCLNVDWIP


Tests used:
[1] = target: T1, Bovine β-trypsin; assay: Trypsin inhibition assay (colorimetric, benzoylarginine-4-nitroanilide); type: biochemical
Experimental: Based on the classification of bevuTI-I as putative trypsin inhibitor of the M. jalapa trypsin inhibitor family, enzymatic inhibition assays were performed.[33] Bovine β-trypsin and bevuTI-I were used in a colorimetric trypsin inhibition assay to measure concentration-dependent inhibition.
The trypsin inhibition assay was performed in 96-well microtiter plates. To 140 μL of a 20 mM Tris-HCl buffer (pH 8.0) was added 20 μL of inhibitor (dissolved in buffer)/buffer (negative control). Afterward, 20 μL of bovine trypsin (0.125 mg/mL, Sigma-Aldrich) was added, and the plate was incubated for 10 min at 22 °C. A volume of 20 μL of benzoylarginine-4-nitroanilide hydroxychloride (Bachem, Bubendorf, Switzerland) dissolved in 20% DMSO at a concentration of 900 μM was added automatically with the dispenser of the Synergy H4 Hybrid reader (BioTek, VM, USA). The rate of enzymatic reaction with different concentrations of inhibitor was measured for 1 h every 5 min at a wavelength of 410 nm. For calculations, the linear portion of data, corresponding to the initial rate of reaction, was used. The highest rate was set to 100% activity. A nonlinear regression (log inhibitor vs normalized response) was performed with GraphPad Prism version 8.0.0 for Windows (GraphPad Software, CA, USA). The top and bottom parameters were set to 100% and 0%, respectively.

[2] = target: T2, human POP; assay: Prolyl oligopeptidase (POP) inhibition assay (fluorescence, Z-Gly-Pro-AMC); type: biochemical; settings: synthetic bevuTI-I; recombinant human POP 50 ng, Z-Gly-Pro-AMC 45 μM, 20 mM HEPES pH 7.4, 150 mM NaCl, 1 mM EDTA, 0.5 mM DTT, ex 360/em 450 nm; mean ± SD of three biological replicates
Source text: As it was previously reported, plant cystine knot peptides belonging to the cyclotide family have the ability to inhibit human prolyl endopeptidase.[33] Thus, we were interested whether the bevuTI-I was also able to inhibit this enzyme. Like psysol-2, bevuTI-I has three proline residues and presumably the same cysteine connectivity.
Recombinant human POP (NM_002726.4) was produced in E. coli BL21 (New England Biolabs, MA, USA). The full-length cDNA was cloned into the BamHI and EcoRI cloning sites of the commercially available expression plasmid pGEX-6P1 by a customized manufacturer service from GenScript (Leiden, The Netherlands). […] The protein concentration of the eluate was determined by the bicinchoninic acid assay (ThermoFisher Scientific), and aliquots of stock protease in storage buffer (including 20% glycerol) were kept at −80 °C. […] Enzyme activity was measured by fluorescence signal as a result of free fluorophore from the Z-Gly-Pro-AMC substrate with an excitation of 360 ± 20 nm and emission of 450 ± 20 nm. Kinetic inhibition data were recorded in 5 min intervals, and the amount of inhibition was calculated from the steepness of the linear initial velocity. […] Concentration–response experiments were evaluated with a fitted nonlinear regression function in GraphPad Prism.

IC50 ([1]; control inhibitor (Glycine max Kunitz-type), bovine trypsin, 20 mM Tris-HCl pH 8.0, 10 min pre-incubation at 22 °C, 410 nm, read-out: IC50, trypsin inhibition) | Molecule | IC50 [1] | IC50 [2]
– | CC[C@H](C)[C@@H]1NC(=O)[C@H](CCCNC(=N)N)NC(=O)[C@H](CC(C)C)NC(=O)[C@H](Cc2c[nH]c3ccccc23)NC(=O)[C@H](CCC(N)=O)NC(=O)[C@H](Cc2c[nH]cn2)NC(=O)[C@@H]2CCCN2C(=O)[C@H](C(C)C)NC(=O)[C@@H]2CSSC[C@@H]3NC(=O)[C@H]([C@@H](C)CC)NC(=O)[C@H]([C@@H](C)O)NC(=O)CNC(=O)[C@H](CO)NC(=O)[C@@H]4CCCN4C(=O)[C@H]([C@@H](C)O)NC(=O)[C@@H](N)CSSC[C@H](NC(=O)[C@H](CSSC[C@@H](C(=O)N[C@@H](C)C(=O)O)NC(=O)[C@H](C(C)C)NC(=O)[C@H](Cc4ccccc4)NC1=O)NC(=O)[C@H](CCC(N)=O)NC(=O)[C@H](CCC(=O)O)NC(=O)[C@@H]1CCCN1C(=O)[C@H](C)NC(=O)[C@H](CCC(=O)O)NC(=O)[C@@H]1CCCN1C(=O)[C@H](CO)NC3=O)C(=O)N[C@@H](CO)C(=O)N[C@@H](CC(N)=O)C(=O)N[C@@H](CO)C(=O)N2 [bevuTI-I, Beta vulgaris trypsin inhibitor I] (H-CTPSGTICSPEAPEQCCSNSCVPHQWLRIFVCA-OH; disulfide 1-17, 8-21, 16-32) | 471 nM and 568 nM | 11000 ± 5300 nM
198 ± 72 nM | Kunitz-type soybean trypsin inhibitor: well-characterized Kunitz-type soybean trypsin inhibitor, used as control (protein, UniProt P01070 25-205, looked up) Trypsin inhibitor A: DFVLDNEGNPLENGGTYYILSDITAFGGIRAAPTGNERCPLTVVQSRNELDKGIGTIISSPYRIRFIAEGHPLSLKFDSFAVIMLCVGIPTEWSVVEDLPEGPAVKIGENKDAMDGWFRLERVSDDEFNNYKLVFCPQQAEDDKCGDIGISIDHDDGTRRLVVSKNKPLVVQFQKLDKESL | – | –
